Laboratory results from patent US9156877B2, “17-hydroxy-17-pentafluorethyl-estra-4,9(10)-dien-11-benzylidene derivatives, methods for the production thereof and use thereof for treating diseases” (Bayer Intellectual Property GmbH, priority 2009, dated 2015).
≈ marks a conversion by molar mass, not a printed value.

Legend:
[1] = Metabolic stability in rat liver microsomes; format: in vitro ADME; details: for Predicted clearance [l/h/kg] Rat: well-stirred model
Experimental: (§1) Determination of Metabolic Stability in Human and Rat Liver Microsomes
(§2) The incubations were conducted with 2.4 ml of HLM solution (protein content 0.5 mg/ml), 30 μl of the test compound (final concentration 1 μM) and 0.6 ml of the cofactor mixture (═NADPH-generating system composed of 3 IU glucose-6-phosphate dehydrogenase, 14.6 mg glucose-6-phosphate, 1.2 mg NADP) at 37° C. in 100 mM phosphate buffer at pH 7.4. Samples were taken at 6 time points (2-60 min) and precipitated with an equal volume of methanol, and the recovery of the test substances used in the supernatant was determined by LC-MS/MS analysis. The half-life of substance degradation determined therefrom was used to calculate what is called the intrinsic clearance of the substance in the liver microsome preparation. […] In addition, under the assumptions that (i) absorption of the test substance is 100%, and (ii) the first pass is completely reflected by liver microsome metabolism, a maximum oral bioavailability (Fmax) was calculated.

[2] = Solubility in aqueous medium at pH 7.4; format: physicochemical; details: for solubility: aqueous medium, pH 7.4, aqueous buffer
Description: In addition, some compounds have an unusually good solubility, for this active ingredient class, in aqueous medium under physiological conditions (Table 2).

[3] = biological target: T1, human progesterone receptor A (Homo sapiens, UniProt P06401); assay: Progesterone receptor-antagonistic action in stably transfected SK-N-MC cells with MMTV-LUC reporter (PR-A); format: cell-based; details: antagonistic potency against 0.1 nmol/l promegestone, 24 hours, luciferase
T1 construct: expressed in transfected cells; host or cells: SK-N-MC human neuroblastoma cells, stably transfected with pRChPR-A-neo and pMMTV-LUC
T1 sequence (P06401 1-769 isoform P06401-2): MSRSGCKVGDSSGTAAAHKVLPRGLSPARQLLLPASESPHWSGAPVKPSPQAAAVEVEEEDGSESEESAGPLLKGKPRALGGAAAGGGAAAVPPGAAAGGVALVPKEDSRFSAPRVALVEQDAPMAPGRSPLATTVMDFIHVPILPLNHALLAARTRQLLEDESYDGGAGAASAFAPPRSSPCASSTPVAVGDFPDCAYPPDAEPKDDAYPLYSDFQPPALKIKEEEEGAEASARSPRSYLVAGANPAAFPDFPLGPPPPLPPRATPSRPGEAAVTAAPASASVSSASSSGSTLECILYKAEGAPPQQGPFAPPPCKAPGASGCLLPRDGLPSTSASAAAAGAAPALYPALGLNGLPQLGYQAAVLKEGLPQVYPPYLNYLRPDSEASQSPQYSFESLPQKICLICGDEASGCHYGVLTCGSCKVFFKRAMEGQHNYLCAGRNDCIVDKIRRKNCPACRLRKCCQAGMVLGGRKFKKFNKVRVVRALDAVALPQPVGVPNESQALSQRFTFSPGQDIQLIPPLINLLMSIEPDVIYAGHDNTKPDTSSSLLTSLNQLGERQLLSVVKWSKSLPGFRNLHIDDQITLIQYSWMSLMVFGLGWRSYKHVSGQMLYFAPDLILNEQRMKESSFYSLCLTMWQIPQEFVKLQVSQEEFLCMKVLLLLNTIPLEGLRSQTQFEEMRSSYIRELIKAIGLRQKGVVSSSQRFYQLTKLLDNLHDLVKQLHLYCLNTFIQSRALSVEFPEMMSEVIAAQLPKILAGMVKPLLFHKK
Method in brief: (§3)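 SK-N-MC neuroblastoma cells stably expressing human PR-A or PR-B plus MMTV-LUC reporter, treated 24 h with test compound (0.01 nmol/l–[…]). Antagonist mode used co-treatment with 0.1 nmol/l promegestone; luciferase in lysates read as RLU, expressed as % efficacy and IC50/EC50.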

[4] = Metabolic stability in human liver microsomes; format: in vitro ADME; details: for Predicted clearance [l/h/kg] Human: 1 μM, well-stirred model
Experimental: as §1
Isolated human liver microsomes (HLM) were used to assess the metabolic stability of compounds of general formula I.
as §2

[5] = biological target: T2, human progesterone receptor B (Homo sapiens, UniProt P06401); assay: Progesterone receptor-antagonistic action in stably transfected SK-N-MC cells with MMTV-LUC reporter (PR-B); format: cell-based; details: antagonistic potency against 0.1 nmol/l promegestone, 24 hours, luciferase
T2 construct: expressed in transfected cells; host or cells: SK-N-MC human neuroblastoma cells, stably transfected with pRChPR-B-neo and pMMTV-LUC
T2 sequence (P06401 1-933): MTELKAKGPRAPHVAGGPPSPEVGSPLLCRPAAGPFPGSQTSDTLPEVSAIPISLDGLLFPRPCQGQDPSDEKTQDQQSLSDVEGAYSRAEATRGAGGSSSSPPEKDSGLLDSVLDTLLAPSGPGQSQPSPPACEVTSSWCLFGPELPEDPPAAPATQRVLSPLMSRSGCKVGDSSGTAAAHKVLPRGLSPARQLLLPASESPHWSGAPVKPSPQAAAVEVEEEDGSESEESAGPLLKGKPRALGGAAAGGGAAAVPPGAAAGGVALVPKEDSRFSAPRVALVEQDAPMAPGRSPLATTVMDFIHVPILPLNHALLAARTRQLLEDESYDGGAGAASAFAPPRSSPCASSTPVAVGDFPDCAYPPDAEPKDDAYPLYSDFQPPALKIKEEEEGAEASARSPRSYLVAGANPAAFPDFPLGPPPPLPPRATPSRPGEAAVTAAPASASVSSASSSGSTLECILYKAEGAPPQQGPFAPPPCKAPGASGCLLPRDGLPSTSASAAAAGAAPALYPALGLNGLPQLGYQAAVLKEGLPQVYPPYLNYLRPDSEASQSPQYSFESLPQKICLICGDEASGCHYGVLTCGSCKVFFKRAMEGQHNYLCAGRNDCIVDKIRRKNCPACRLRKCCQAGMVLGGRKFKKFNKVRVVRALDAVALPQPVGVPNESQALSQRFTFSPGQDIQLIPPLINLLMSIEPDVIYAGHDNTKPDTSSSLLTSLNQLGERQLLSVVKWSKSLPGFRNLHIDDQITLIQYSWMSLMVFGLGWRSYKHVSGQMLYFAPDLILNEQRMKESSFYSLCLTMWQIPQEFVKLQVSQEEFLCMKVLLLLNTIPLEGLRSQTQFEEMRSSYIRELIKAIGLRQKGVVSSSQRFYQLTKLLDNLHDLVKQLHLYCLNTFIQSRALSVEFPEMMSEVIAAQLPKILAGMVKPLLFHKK
Method in brief: as §3

Structure (SMILES) | Predicted Fmax [%] (maximum oral bioavailability) Rat [1] | Predicted clearance [l/h/kg] Rat [1] | solubility [2] | IC50 [3] | Predicted Fmax [%] (maximum oral bioavailability) Human [4] | Predicted clearance [l/h/kg] Human [4] | IC50 [5] | solubility (in words) ([2]; aqueous medium under physiological conditions)
C[C@]12C[C@H](c3ccc(/C=C/C#N)cc3)C3=C4CCC(=O)C=C4CC[C@H]3[C@@H]1CC[C@@]2(O)C(F)(F)C(F)(F)F [Example 14, (E)-3-[4-((8S,11R,13S,14S,17S)-17-hydroxy-13-methyl-3-oxo-17-pentafluoroethyl-2,3,6,7,8,11,12,13,14,15,16,17-dodecahydro-1H-cyclopenta[a]phenanthren-11-yl)phenyl]acrylonitrile] | 75% | 1.1 L/h/kg | 9 µg/mL (≈ 17.4 µM) | 0.011 nM | 31% | 0.9 L/h/kg | 0.011 nM | –
CC(=O)/C=C/c1ccc([C@H]2C[C@@]3(C)[C@@H](CC[C@@]3(O)C(F)(F)C(F)(F)F)[C@@H]3CCC4=CC(=O)CCC4=C32)cc1 [Example 16, (8S,11R,13S,14S,17S)-17-hydroxy-13-methyl-11-[4-((E)-3-oxobut-1-enyl)phenyl]-17-pentafluoroethyl-1,2,6,7,8,11,12,13,14,15,16,17-dodecahydrocyclopenta[a]phenanthren-3-one] | 52% | 2.0 L/h/kg | 10 µg/mL (≈ 18.7 µM) | 0.1 nM | 23% | 1.02 L/h/kg | 0.3 nM | –
C[C@]12C[C@H](c3cccc(/C=C/c4ccccn4)c3)C3=C4CCC(=O)C=C4CC[C@H]3[C@@H]1CC[C@@]2(O)C(F)(F)C(F)(F)F [Example 21, (8S,11R,13S,14S,17S)-17-hydroxy-13-methyl-17-pentafluoroethyl-11-[3-((E)-2-pyridin-2-ylvinyl)phenyl]-1,2,6,7,8,11,12,13,14,15,16,17-dodecahydrocyclopenta[a]phenanthren-3-one] | 88% | 0.5 L/h/kg | 7 µg/mL (≈ 12.3 µM) | 0.9 nM | 48% | 0.7 L/h/kg | 1 nM | –
C[C@]12C[C@H](c3cccc(/C=C/c4cccnc4)c3)C3=C4CCC(=O)C=C4CC[C@H]3[C@@H]1CC[C@@]2(O)C(F)(F)C(F)(F)F [Example 22, (8S,11R,13S,14S,17S)-17-hydroxy-13-methyl-17-pentafluoroethyl-11-[3-((E)-2-pyridin-3-ylvinyl)phenyl]-1,2,6,7,8,11,12,13,14,15,16,17-dodecahydrocyclopenta[a]phenanthren-3-one] | 77% | 1.0 L/h/kg | 6 µg/mL (≈ 10.5 µM) | 0.3 nM | 41% | 0.8 L/h/kg | 1 nM | –
C[C@]12C[C@H](c3cccc(/C=C/c4ccncc4)c3)C3=C4CCC(=O)C=C4CC[C@H]3[C@@H]1CC[C@@]2(O)C(F)(F)C(F)(F)F [Example 23, (8S,11R,13S,14S,17S)-17-hydroxy-13-methyl-17-pentafluoroethyl-11-[3-((E)-2-pyridin-4-ylvinyl)phenyl]-1,2,6,7,8,11,12,13,14,15,16,17-dodecahydrocyclopenta[a]phenanthren-3-one] | 95% | 0.2 L/h/kg | 8 µg/mL (≈ 14 µM) | 0.2 nM | 67% | 0.4 L/h/kg | 0.2 nM | –
C[C@]12C[C@H](c3ccc(/C=C/CC(C#N)C#N)cc3)C3=C4CCC(=O)C=C4CCC3C1CC[C@@]2(O)C(F)(F)C(F)(F)F (stereo partly drawn) [Example 27, 2-{(E)-3-[4-((8S,11R,13S,14S,17S)-17-hydroxy-13-methyl-3-oxo-17-pentafluoroethyl-2,3,6,7,8,11,12,13,14,15,16,17-dodecahydro-1H-cyclopenta[a]phenanthren-11-yl)phenyl]allyl}malonitrile] | 79% | 0.9 L/h/kg | 10 µg/mL (≈ 17.5 µM) | 0.2 nM | 26% | 0.98 L/h/kg | 0.1 nM | –
C[C@]12C[C@H](c3ccc(/C=C/c4cccc(C(=O)O)c4)cc3)C3=C4CCC(=O)C=C4CC[C@H]3[C@@H]1CC[C@@]2(O)C(F)(F)C(F)(F)F [Example 28, 3-{(E)-2-[4-((8S,11R,13S,14S,17S)-17-hydroxy-13-methyl-3-oxo-17-pentafluoroethyl-2,3,6,7,8,11,12,13,14,15,16,17-dodecahydro-1H-cyclopenta[a]phenanthren-11-yl)phenyl]vinyl}benzoic acid] | 97% | 0.1 L/h/kg | 120 µg/mL (≈ 196 µM) | 0.06 nM | 74% | 0.35 L/h/kg | 0.1 nM | improved
CCO/N=C/c1ccc([C@H]2C[C@@]3(C)[C@@H](CC[C@@]3(O)C(F)(F)C(F)(F)F)[C@@H]3CCC4=CC(=O)CCC4=C32)cc1 [Example 36, 4-((8S,11R,13S,14S,17S)-17-hydroxy-13-methyl-3-oxo-17-pentafluoroethyl-2,3,6,7,8,11,12,13,14,15,16,17-dodecahydro-1H-cyclopenta[a]phenanthren-11-yl)benzaldehyde O-ethyl oxime] | 82% | 0.8 L/h/kg | 5 µg/mL (≈ 9.3 µM) | 0.08 nM | 72% | 0.36 L/h/kg | 0.08 nM | –
